Results published in publication PMC4124913 (Bioorganic & medicinal chemistry, 2013).

Experiments:
Bcr-Abl = Bcr-Abl (Homo sapiens, UniProt P00519); assay: Bcr-Abl kinase assay; details: for ΔΔGbind (exptl): RT ln [IC50(cmpd)/IC50(11a)], 298 K
[1] = system: K562 cells expressing Abl; assay: In vitro radiotracer accumulation, washout and blocking in K562 cells; format: cell-based, human; details: cell cultures, excess cold STI-571

Chain of Bcr-Abl (P00519 whole entry): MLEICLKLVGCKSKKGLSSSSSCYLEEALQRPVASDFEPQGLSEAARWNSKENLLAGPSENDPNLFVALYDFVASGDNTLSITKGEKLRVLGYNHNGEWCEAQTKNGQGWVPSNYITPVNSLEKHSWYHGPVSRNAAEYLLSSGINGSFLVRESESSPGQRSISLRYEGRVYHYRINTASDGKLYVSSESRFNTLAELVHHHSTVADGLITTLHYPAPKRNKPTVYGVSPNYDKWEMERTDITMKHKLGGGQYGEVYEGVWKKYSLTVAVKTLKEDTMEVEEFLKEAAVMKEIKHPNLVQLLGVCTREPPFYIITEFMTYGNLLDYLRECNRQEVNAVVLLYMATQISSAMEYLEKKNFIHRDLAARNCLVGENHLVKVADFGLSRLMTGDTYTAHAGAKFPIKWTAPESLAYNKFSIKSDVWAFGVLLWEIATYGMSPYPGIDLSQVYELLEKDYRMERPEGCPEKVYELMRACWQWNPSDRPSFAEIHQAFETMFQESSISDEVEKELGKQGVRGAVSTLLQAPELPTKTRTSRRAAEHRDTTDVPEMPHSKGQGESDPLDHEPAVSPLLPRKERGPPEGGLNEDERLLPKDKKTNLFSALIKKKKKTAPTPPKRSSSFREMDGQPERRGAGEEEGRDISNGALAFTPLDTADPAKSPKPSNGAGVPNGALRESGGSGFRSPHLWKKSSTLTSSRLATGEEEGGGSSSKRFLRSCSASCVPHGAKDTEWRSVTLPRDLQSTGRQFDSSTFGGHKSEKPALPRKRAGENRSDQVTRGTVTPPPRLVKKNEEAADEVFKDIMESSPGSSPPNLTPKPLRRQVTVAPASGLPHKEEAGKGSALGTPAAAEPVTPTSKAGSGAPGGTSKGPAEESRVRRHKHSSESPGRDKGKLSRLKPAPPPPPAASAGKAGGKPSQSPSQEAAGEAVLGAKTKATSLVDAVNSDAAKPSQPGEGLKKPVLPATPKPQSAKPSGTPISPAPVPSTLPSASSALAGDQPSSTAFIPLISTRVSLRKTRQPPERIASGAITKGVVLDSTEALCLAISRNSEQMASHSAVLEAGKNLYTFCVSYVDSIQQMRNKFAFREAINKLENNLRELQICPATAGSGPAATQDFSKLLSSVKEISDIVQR

Compound	IC50 (Bcr-Abl) [nM]	ΔΔGbind (exptl) (Bcr-Abl) [kcal/mol]	binding on addition of excess STI-571 (blocking) [1]
Cc1ccc(NC(=O)c2ccc(CN3CCN(CCF)CC3)cc2)cc1Nc1nccc(-c2cccnc2)n1 [Compound 11b]	1300	1.47	
Cc1ccc(NC(=O)c2ccc(CN3CCN(CCO)CC3)cc2)cc1Nc1nccc(-c2cccnc2)n1 [Compound 11c]		2.44	
Cc1ccc(NC(=O)c2ccc(CN3CCN(Cc4ccc(I)cc4)CC3)cc2)cc1Nc1nccc(-c2cccnc2)n1 [Compound 11e]		1.10	
Cc1ccc(NC(=O)c2ccc(CN3CCN(CC[18F])CC3)cc2)cc1Nc1nccc(-c2cccnc2)n1 [Compound 11g]			diminished as excess STI-571 was added
